Entries after “also recorded” stand apart in the source; their conditions may differ.
How the values were obtained:
HDAC4/5/7 [1] = test: Immunoblot of HDAC phosphorylation in primary hepatocytes treated with A769662; type: cell-based, mouse; settings: 1 hr, particularly on the Ser498 sites
Procedure: (F) Lysates from primary hepatocytes treated with either AMPK agonist A769662 or Vehicle (DMSO) for 1 hr and immunoblotted with indicated antibodies.
(§1) Primary hepatocytes were derived from C57BL/6J mice and maintained in serum free Media 199. Cells were transduced 24 hrs after harvesting. Knock-down and over-expression studies in hepatocytes were done by infecting cells at 5 PFUs/cell. All adenoviral shRNA knockdowns were carried out for 72 hrs. For subcellular fractionation, cells were treated as indicated, washed 3 times with PBS and lysed utilizing NE-PER Cell Fractionation Kit (Pierce). Primary hepatocytes were treated with 10 uM Forksolin (Sigma) and 100 nM Glucagon (Novo Nordisk), 100 nM insulin (Lilly) at indicated times.

G6PAse and PEPCK mRNA = test: qPCR of G6PAse and PEPCK mRNA in primary hepatocytes pre-treated with MC1568; type: cell-based, mouse; settings: 5 uM MC1568 for 14 hours, then 10 uM Forskolin or 100 nM Glucagon for 4 hrs; normalized to cyclophilin
Procedure: (§2) Blood glucose was measured on mice fasted for 22 hours (4 hrs following the final treatment).
as §1
mRNA from primary hepatocytes was isolated using RNAeasy (Qiagen) kit and reverse transcribed using SuperScript II Reverse Transcriptase. Three samples/mice were used per condition and qPCR was done in technical triplicate for each sample. qPCR reaction was carried out using Syber GreenER (Invitrogen). All qPCR results are representative of 3 separate experiments.

db/db mice = test: Blood glucose in db/db mice treated with MC1568; type: in vivo, mouse; settings: 50 mg/kg intraperitoneally once a day for 4 days, fasted for 22 hours (4 hrs after final treatment)
Procedure: as §2

HDAC4/5/7 [2] = test: Immunoblot of HDAC phosphorylation in livers of metformin-treated mice; type: in vivo; settings: mouse liver, 250 mg/kg metformin intraperitoneally for 1 h
Procedure: (D) Immunoblot of lysates from murine livers from LKB1+/+ or LKB1lox/lox mice deleted for hepatic LKB1 and treated with either 250 mg/kg metformin, or saline alone for 1 h.
To induce Cre-mediated deletion in Albumin-creERT2 mice, mice were intraperitoneally injected with 1 mg/mouse of Tamoxifen (SIGMA) for 5 consecutive days. Ad-Cre mediated deletion in LBK1lox/lox mice was done by tail vein injection of 1×10^9 PFUs/mouse in 8 week old males (FIG. 1D). […] For metformin experiments, mice injected intraperitoneally with 250 mg/kg Metformin in 0.9% saline for 1 h.

HDACs4/5 = test: Immunoblot of HDAC phosphorylation in HepG2 or Huh7 cells treated with phenformin; type: cell-based, human; settings: 2 mM Phenformin for 1 hr
Procedure: (C) Lysates of HepG2 or Huh7 cells transfected with indicated siRNA pools and treated with either 2 mM Phenformin or vehicle for 1 hr and subjected to immunoblotting.
(§3) HEK293T, Huh7, HepG2, C2C12, and U2OS cells were obtained from ATCC. RNAi SMARTpool human LKB1 (Dharmacon) or RNAi negative control (Invitrogen) used at 20 nM final concentration and transfected using RNAiMAX transfection reagent (Invitrogen). Knockdowns were carried out for 72 hrs. Cells were treated with 1 uM TSA or 10 mM NAM (Sigma), Cells were treated with 2 mM AICAR (Toronto Research Chemicals) or 2 mM Phenformin (Sigma).

FOXO1 = FOXO1 acetylation immunoblot in HEK293T cells treated with TSA; type: cell-based; settings: HEK293T cells with Myc-Foxo1 WT, 1 uM TSA for 2 h
Procedure: (C) HEK293T cells were transfected with Myc-Foxo1 WT construct and cells were treated with 1 uM TSA and/or 10 mM NAM for 2 h. Cell lysates were immunoblotted with indicated antibodies.
as §3

GFP-HDAC5 = GFP-HDAC5 nuclear translocation in primary mouse hepatocytes (confocal microscopy); type: cell-based; settings: 100 nM glucagon
[3] = tested on: endogenous Class IIa HDACs; test: Subcellular fractionation of primary hepatocytes; type: cell-based, mouse; settings: 100 nM Glucagon or 10 uM Forskolin for 1 h
HDAC4/5/7 [4] = test: Immunoblot of HDAC phosphorylation in liver lysates of glucagon-injected mice; type: in vivo, mouse; settings: mice starved 6 h, glucagon for 45 minutes
Procedure: (A) Mice were starved for 6 h and then treated with saline, glucagon (Gluca) for 45 minutes, or refed for 3 h. Liver lysates were immunoblotted with indicated antibodies.

HDAC4/5/7 [5] = test: Immunoblot of HDAC phosphorylation in primary mouse hepatocytes treated with glucagon or forskolin; type: cell-based; settings: 100 nM glucagon or 10 uM forskolin

Compound: N#Cc1c(O)c2c(-c3ccc(-c4ccccc4O)cc3)csc2[nH]c1=O [A769662]
- HDAC4/5/7 phosphorylation (HDAC4/5/7 [1]): increased HDAC4/5/7 phosphorylation

Compound: Cn1c(/C=C/C(=O)NO)ccc1/C=C/C(=O)c1cccc(F)c1 [MC1568]
- expression of G6PAse (mRNA, qPCR) (G6PAse and PEPCK mRNA): suppresses the expression; also recorded: suppression
- expression of PEPCK (mRNA, qPCR) (G6PAse and PEPCK mRNA): suppresses the expression; also recorded: suppression
- blood glucose (db/db mice): lowers blood glucose; also recorded: suppression

Compound: CN(C)C(=N)N=C(N)N [metformin]
- Phospho-Ser498 in HDAC4/5/7 (HDAC4/5/7 [2]): increase in Phospho-Ser498

Compound: [H]/N=C(/N)N/C(=N/[H])NCCc1ccccc1 [phenformin]
- phosphorylation on Ser498 of HDACs4/5 (HDACs4/5): LKB1-dependent increase in phosphorylation

Compound: CC(/C=C/C(=O)NO)=C\[C@@H](C)C(=O)c1ccc(N(C)C)cc1 [trichostatin A]
- FOXO1 acetylation (FOXO1): increased FOXO1 acetylation

Compound: glucagon
- time to full nuclear translocation of GFP-tagged HDAC5 (GFP-HDAC5): ≤ 30 min
- localization of endogenous Class IIa HDACs [3]: translocate fully into the nucleus
- HDAC4/5/7 phosphorylation in liver (HDAC4/5/7 [4]): reduced HDAC4/5/7 phosphorylation
- endogenous HDAC4/5/7 phosphorylation (HDAC4/5/7 [5]): rapid loss of endogenous HDAC4/5/7 phosphorylation

Source: patent US20140314788A1, “MODULATION OF HISTONE DEACETYLASES FOR THE TREATMENT OF METABOLIC DISEASE, METHODS AND COMPOSITIONS RELATED THERETO” (Salk Institute for Biological Studies, priority 2010, published 2014)
